Marks after values point to notes of the source that are not given here.
Columns and labels:
[1] = system: mouse supramaximal electroshock seizure (MES) model of generalized seizures; test: Maximal electroshock (MES) test, number of tonic convulsions; assay type: in vivo; conditions: for % change from vehicle (number of tonic clonic seizures after MES): 250 mg/kg I.P., pre-treatment time 30 mins, N 16
Protocol: Mice were administered MES (30 mA, rectangular current: 0.6 ms pulse width, 0.2 s duration, 50 Hz) via corneal electrodes connected to a constant current shock generator (Ugo Basile: type 7801) to reliably produce tonic hind limb convulsions. The number of tonic convulsions was recorded.
Sixteen mice were studied per group. The test was performed blind.
The test substance, (+)-trans-THC, was evaluated at 4 doses (3, 10, 30 and 300 mg/kg), administered i.p. 60 minutes before MES, and compared with a vehicle control group (administered under the same experimental conditions).
Valproate (positive control) was administered at 250 mg/kg i.p. 30 minutes before MES, was used as a reference substance and was compared with a vehicle group (administered i.p. 60 minutes before MES).
Data was analysed by comparing treated groups with the appropriate vehicle control using 2-tailed Fisher's Exact Probability tests (p<0.05 considered significant).

[2] = depending on the assay; cited from earlier work
[3] = system: mouse model of pain, the hotplate test; test: Hotplate test (52° C.), withdrawal threshold; assay type: in vivo; conditions: for Withdrawal threshold (sec) Mean +/− SEM: N 13
Protocol: Mice underwent a minimum habituation period of 7 days prior to study commencement. Naïve mice were acclimatised to the procedure room in their home cages, with food and water available ad libitum.
Animals were treated with either treatment vehicle, (+)-trans-THC at 3, 10, 30 and 300 mg/kg at 10 ml/kg i.p. or Morphine 10 mg/kg or Morphine vehicle (Saline) at 10 ml/kg i.p.
Animals were placed onto a hot plate set at 52° C. and time to withdrawal threshold (first response of lifting, licking front or hind paws or trying to escape) was taken at 1-hour post treatment, or at 0.5 hour after the positive control.
Animals were culled by a schedule 1 method, immediately after the measurement.
Data were analysed by comparing withdrawal thresholds back to Vehicle treated group.

Compound: CCCC(CCC)C(=O)O [Valproate]
- % change from vehicle (number of tonic clonic seizures after MES) [1]: 100.0%
- % change from vehicle (number of tonic clonic seizures after MES) ([1]; listed as valproate): 100%

Compound: CCCCCc1cc(O)c2c(c1)OC(C)(C)[C@@H]1CCC(C)=C[C@@H]21 [(−)-trans-THC, (−)-trans-tetrahydrocannabinol]
- Potency relative to the (+)-trans-THC isomer [2]: 6-100 times

Compound: CN1CC[C@]23c4c5ccc(O)c4O[C@H]2[C@@H](O)C=C[C@H]3[C@H]1C5 [Morphine]
- Withdrawal threshold (sec) Mean +/− SEM ([3]; 10 mg/kg I.P., 0.5 hour after treatment): 20.25 +/− 1.71 *** sec
- Withdrawal threshold (sec) Mean +/− SEM ([3]; 10 mg/kg I.P., 0.5 hour after treatment, listed as morphine): significant increase in the withdrawal threshold compared to vehicle

Compound: CCCCCc1cc(O)c2c(c1)OC(C)(C)[C@H]1CCC(C)=C[C@H]21 (relative stereo) [(+)-trans-THC, (+)-trans-tetrahydrocannabinol]
- Withdrawal threshold (sec) Mean +/− SEM ([3]; 3 mg/kg I.P., 1-hour post treatment): 11.05 ± 0.72 s
- Withdrawal threshold (sec) Mean +/− SEM ([3]; 10 mg/kg I.P., 1-hour post treatment): 12.63 ± 0.81 s
- Withdrawal threshold (sec) Mean +/− SEM ([3]; 30 mg/kg I.P., 1-hour post treatment): 13.38 ± 1.03 s
- Anti-nociceptive effect in an animal model of pain (overall conclusion) ([3]; hotplate, 3-300 mg/kg i.p.): exhibits an anti-nociceptive effect
- Anti-convulsant effect in the MES model (overall conclusion) ([1]; 3, 10, 30 and 300 mg/kg i.p.): no anti-convulsant effect

— patent US20220378738A1, “(+)-TRANS TETRAHYDROCANNABINOL ((+)-TRANS-THC) FOR USE AS A MEDICAMENT” (GW Research Limited, priority 2019, published 2022)
